Results as given in patent publication US8143003B2, “Method for detecting oral squamous-cell carcinoma” (Fujifilm Corporation, priority 2008, dated 2012).
“Also recorded” adds a separate entry of the source.

Tests used:
Format in all cases: cell-based
[1] = tested on: MTNR1A gene expression in oral squamous-cell carcinoma cell lines (TOSCa-50, ZA, and NA); test: Recovery of MTNR1A gene expression by demethylation, examined by RT-PCR
Procedure: (C) MTNR1A expression was recovered by a demethylation treatment performed on cells in which the gene was not expressed. The cells were treated using a 1 μM or 5 μM demethylating reagent 5-aza-dCyd for 5 days and/or using a deacetylation inhibitory agent TSA (100 ng/ml) for 12 hours. GAPDH was used as an internal control.
Specifically, single-stranded cDNA was synthesized from the RNA extracted from each cultured cell line using the SuperScript First-Strand Synthesis System (Invitrogen). Moreover, a glyceraldehyde-3-phosphate dehydrogenase (GAPDH) gene was used as a control.
In order to examine if the suppressed expression of the MTNR1A gene was due to DNA methylation, oral squamous-cell carcinoma cell lines (TOSCa-50, ZA, and NA) that had not expressed the MTNR1A gene were treated with a 1 μM or 5 μM demethylating reagent 5-aza-dCyd for 5 days and/or with a deacetylation inhibitory agent TSA (100 ng/ml) for 12 hours. RNAs were extracted from these cells, and MTNR1A gene expression was then examined by RT-PCR (FIG. 2c).

[2] = tested on: CYP4V2 gene expression in cell lines with decreased expression; test: CYP4V2 gene expression after treatment with 5-aza-dCyd and/or TSA
Procedure: (§1) (A) The expression status of a DKFZP564J gene and a CYP4V2 gene in cell lines in which the expression levels of the aforementioned genes had been decreased, which were treated with 5-aza-dCyd and/or TSA.

[3] = tested on: DKFZP564J gene expression in cell lines with decreased expression; test: DKFZP564J gene expression after treatment with 5-aza-dCyd and/or TSA
Procedure: as §1

| SMILES | MTNR1A gene expression (RT-PCR) ([1]; TSA 100 ng/ml for 12 hours, NA cells) | MTNR1A gene expression (RT-PCR) ([1]; 1 μM or 5 μM 5-aza-dCyd for 5 days, NA cells not expressing MTNR1A) | CYP4V2 gene expression [2] | DKFZP564J gene expression [3] |
| --- | --- | --- | --- | --- |
| CC(/C=C/C(=O)NO)=C\[C@@H](C)C(=O)c1ccc(N(C)C)cc1 [TSA] | no differences in MTNR1A gene expression |  |  |  |
| Nc1ncn([C@H]2C[C@H](O)[C@@H](CO)O2)c(=O)n1 [5-aza-dCyd, 5-azadeoxycytidine] |  | recovers its gene expression; also recorded: possible to recover the expression level of the MTNR1A gene | gene expression was not recovered | gene expression was not recovered |
